# ChEMBL document CHEMBL1201862, “PubChem BioAssay data set” (2004)
# Activity calls are given as the source filed them.
# Assays:
# [1] = biological target: FAD-linked sulfhydryl oxidase ALR (Homo sapiens, UniProt P55789); test: inhibitors of human ALR sulfhydryl oxidase, dose response, biochemical, H2O2 detection, luminescence, cherry-pick (AID 493248)
# [2] = Luminescence Cell-Based Dose Retest to Confirm Inhibitors of Cancer Stem Cells. [Related pubchem assays (depositor defined):AID2717, AID2721]; assay type: functional; settings: Homo sapiens
# [3] = biological target: Matrix metalloproteinase-14 (Homo sapiens, UniProt P50281); test: Dose Response confirmation of uHTS hits for a small molecule inhibitors of MT1-MMP activation in a fluorescence assay set 2.; assay type: functional
# [4] = cytotoxicity in HMLE control line with eGFP shRNA, dose response, counter-screen for HMLE_sh_ECad selective toxicity project, cell-based, HMLE_sh_eGFP, luminescence (AID 463074); assay type: functional, Homo sapiens;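 further: HMLE human mammary epithelial cells expressing control shRNA against eGFP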
# [5] = biological target: Heat shock cognate 71 kDa protein (Homo sapiens, UniProt P11142); test: In Vitro Hsc70 Dose Response Fluorescence Polarization Assay. [Related pubchem assays: 1072 ]
# [6] = biological target: T1, Dual specificity protein phosphatase 6 (Rattus norvegicus, UniProt Q64346)
# T1 sequence (Q64346 whole entry): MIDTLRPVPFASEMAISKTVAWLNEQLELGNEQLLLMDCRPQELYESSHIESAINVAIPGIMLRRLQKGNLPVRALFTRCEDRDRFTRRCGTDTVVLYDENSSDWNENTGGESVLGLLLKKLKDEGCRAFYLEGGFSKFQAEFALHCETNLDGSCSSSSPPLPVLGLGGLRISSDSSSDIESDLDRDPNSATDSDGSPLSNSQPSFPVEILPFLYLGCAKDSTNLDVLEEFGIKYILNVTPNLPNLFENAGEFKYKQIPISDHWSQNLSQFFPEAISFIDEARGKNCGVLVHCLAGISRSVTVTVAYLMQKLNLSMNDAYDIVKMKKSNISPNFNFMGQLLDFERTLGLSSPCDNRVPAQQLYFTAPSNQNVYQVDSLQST
# [7] = biological target: Glyceraldehyde-3-phosphate dehydrogenase (Homo sapiens, UniProt P04406)
# Sequence of Glyceraldehyde-3-phosphate dehydrogenase (P04406 whole entry): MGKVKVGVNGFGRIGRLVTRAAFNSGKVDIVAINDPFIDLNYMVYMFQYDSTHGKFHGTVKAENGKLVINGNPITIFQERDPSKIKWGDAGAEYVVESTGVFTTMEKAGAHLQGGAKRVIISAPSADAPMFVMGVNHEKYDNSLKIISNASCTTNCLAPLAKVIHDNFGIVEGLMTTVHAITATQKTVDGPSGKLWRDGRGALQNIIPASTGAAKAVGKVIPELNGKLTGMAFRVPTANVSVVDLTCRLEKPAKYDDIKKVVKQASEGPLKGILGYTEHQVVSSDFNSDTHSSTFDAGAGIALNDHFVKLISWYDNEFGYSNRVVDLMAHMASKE
# [8] = biological target: T2, Tyrosine-protein phosphatase non-receptor type 7 (Homo sapiens, UniProt P35236); assay type: functional
# T2 sequence (P35236 whole entry): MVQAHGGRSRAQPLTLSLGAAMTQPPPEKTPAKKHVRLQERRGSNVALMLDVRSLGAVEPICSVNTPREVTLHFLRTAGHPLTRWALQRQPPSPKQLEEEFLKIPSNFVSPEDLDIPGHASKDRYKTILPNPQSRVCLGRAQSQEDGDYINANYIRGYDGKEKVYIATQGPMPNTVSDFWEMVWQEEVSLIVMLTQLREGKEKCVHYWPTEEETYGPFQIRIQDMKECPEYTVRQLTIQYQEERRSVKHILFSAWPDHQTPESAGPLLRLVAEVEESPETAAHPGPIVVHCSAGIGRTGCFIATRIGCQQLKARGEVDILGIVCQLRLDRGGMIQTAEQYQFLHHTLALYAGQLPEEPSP
# [9] = biological target: Heat shock 70 kDa protein 1A (Homo sapiens, UniProt P0DMV8); test: Hsp70 inhibitors, SAR follow-up, biochemical, fluorescence polarization (AID 1072)
# Sequence of Heat shock 70 kDa protein 1A (P0DMV8 whole entry): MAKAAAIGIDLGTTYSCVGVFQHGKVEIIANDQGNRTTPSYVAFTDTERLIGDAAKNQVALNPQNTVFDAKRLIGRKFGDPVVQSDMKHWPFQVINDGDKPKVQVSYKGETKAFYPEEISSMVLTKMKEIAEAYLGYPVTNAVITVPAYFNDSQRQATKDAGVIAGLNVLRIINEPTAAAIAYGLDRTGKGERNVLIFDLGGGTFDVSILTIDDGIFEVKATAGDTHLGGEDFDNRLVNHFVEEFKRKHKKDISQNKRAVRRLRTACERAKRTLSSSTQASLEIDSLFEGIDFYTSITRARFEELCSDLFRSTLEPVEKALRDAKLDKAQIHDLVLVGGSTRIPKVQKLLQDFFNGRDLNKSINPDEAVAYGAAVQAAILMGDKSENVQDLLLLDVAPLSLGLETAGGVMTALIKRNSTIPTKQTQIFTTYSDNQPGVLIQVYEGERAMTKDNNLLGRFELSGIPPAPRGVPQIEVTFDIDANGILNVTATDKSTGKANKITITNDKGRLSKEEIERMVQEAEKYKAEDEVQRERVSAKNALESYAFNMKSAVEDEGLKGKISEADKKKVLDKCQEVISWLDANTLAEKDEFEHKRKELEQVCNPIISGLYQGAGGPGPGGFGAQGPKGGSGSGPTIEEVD
# [10] = biological target: T1, Dual specificity protein phosphatase 6; assay type: functional
# [11] = biological target: T3, Nuclear receptor subfamily 0 group B member 1 (Homo sapiens, UniProt P51843); test: Luminescence-based cell-based high throughput dose response assay for inhibitors of the orphan nuclear receptor subfamily 0, group B, member 1 (DAX1; NR0B1). [Related pubchem assays (depositor defined):AID504766, AID504790]; assay type: functional
# T3 sequence (P51843 whole entry): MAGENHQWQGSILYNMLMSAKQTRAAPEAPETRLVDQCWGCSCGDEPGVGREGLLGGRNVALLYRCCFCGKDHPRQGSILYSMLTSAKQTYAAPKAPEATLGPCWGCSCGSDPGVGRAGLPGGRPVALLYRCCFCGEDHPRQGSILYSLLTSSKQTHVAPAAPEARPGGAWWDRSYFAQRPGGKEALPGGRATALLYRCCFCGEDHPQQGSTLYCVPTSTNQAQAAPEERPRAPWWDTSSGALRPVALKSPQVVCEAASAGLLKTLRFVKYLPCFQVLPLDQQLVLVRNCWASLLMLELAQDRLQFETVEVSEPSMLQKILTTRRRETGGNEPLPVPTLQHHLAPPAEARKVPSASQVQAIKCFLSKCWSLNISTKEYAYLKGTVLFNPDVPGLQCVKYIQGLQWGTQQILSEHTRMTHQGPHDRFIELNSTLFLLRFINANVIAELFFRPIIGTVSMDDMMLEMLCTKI
# [12] = system: HEK293; test: cells; assay type: functional, cell-based; settings: Homo sapiens
# [13] = biological target: Beta-2 adrenergic receptor (Homo sapiens, UniProt P07550); test: beta2AR agonists driving receptor internalization, dose response, cell-based, FAP fluorogen, flow cytometry, cherry pick 1 (AID 588763); assay type: functional
# Sequence of Beta-2 adrenergic receptor (P07550 whole entry): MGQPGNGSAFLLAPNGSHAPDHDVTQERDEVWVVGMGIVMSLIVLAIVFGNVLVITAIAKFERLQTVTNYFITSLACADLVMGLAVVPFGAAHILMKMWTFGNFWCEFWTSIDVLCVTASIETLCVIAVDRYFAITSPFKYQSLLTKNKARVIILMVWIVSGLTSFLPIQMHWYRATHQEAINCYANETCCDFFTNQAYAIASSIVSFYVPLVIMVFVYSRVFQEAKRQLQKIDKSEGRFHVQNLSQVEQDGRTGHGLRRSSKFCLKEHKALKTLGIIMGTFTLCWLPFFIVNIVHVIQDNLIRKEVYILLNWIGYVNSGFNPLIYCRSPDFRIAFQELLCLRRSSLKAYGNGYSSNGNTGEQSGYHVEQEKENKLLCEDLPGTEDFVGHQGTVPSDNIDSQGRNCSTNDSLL
# [14] = system: A-375; test: MITF: Counter assay: A375 proliferation Measured in Cell-Based System Using Plate Reader - 2084-03_Inhibitor_Dose_DryPowder_Activity. [Related pubchem assays (depositor defined):AID488944]; assay type: functional; settings: Homo sapiens
# [15] = system: A-375; test: A375 melanoma cell viability reduction, dose response, counter-screen for MITF modulator project, cherry-pick samples, set 2 (AID 540335); assay type: functional, cell-based; settings: Homo sapiens
# [16] = Vero cell cytotoxicity, dose response, cytotoxicity control for Vif-APOBEC3G degradation inhibitor project, Vero cells (AID 1117358); assay type: functional; settings: Human immunodeficiency virus 1, Vero
# [17] = biological target: Dual specificity tyrosine-phosphorylation-regulated kinase 1A (Rattus norvegicus, UniProt Q63470); assay type: biochemical, Homo sapiens
# [18] = biological target: Dual specificity protein kinase CLK1 (Homo sapiens, UniProt P49759); test: CLK1 kinase inhibitors, off-target check, dose response, selectivity assay for Dyrk1A inhibitor project, biochemical, cherry-picked samples (AID 588811)
# Sequence of Dual specificity protein kinase CLK1 (P49759 whole entry): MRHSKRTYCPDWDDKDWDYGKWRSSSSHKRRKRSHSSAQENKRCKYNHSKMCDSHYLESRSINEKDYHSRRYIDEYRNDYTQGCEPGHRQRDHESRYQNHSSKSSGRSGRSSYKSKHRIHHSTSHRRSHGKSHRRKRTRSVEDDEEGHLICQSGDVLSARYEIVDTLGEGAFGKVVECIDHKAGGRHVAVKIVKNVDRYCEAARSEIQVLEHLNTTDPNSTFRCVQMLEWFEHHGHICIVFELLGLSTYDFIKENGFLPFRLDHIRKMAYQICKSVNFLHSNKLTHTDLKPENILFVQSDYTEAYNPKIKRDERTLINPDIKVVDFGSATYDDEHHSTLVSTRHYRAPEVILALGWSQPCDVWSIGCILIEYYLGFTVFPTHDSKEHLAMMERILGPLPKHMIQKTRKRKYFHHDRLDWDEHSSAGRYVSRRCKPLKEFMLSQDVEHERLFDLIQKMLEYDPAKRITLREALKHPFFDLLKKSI
# [19] = biological target: T4, Phospholipase D2 (Homo sapiens, UniProt O14939); test: PLD2 inhibitor potency in cells, dose response (AID 602147); assay type: functional;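 further: cellular assay in HEK293 cells overexpressing GFP-tagged PLD2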
# T4 sequence (O14939 whole entry): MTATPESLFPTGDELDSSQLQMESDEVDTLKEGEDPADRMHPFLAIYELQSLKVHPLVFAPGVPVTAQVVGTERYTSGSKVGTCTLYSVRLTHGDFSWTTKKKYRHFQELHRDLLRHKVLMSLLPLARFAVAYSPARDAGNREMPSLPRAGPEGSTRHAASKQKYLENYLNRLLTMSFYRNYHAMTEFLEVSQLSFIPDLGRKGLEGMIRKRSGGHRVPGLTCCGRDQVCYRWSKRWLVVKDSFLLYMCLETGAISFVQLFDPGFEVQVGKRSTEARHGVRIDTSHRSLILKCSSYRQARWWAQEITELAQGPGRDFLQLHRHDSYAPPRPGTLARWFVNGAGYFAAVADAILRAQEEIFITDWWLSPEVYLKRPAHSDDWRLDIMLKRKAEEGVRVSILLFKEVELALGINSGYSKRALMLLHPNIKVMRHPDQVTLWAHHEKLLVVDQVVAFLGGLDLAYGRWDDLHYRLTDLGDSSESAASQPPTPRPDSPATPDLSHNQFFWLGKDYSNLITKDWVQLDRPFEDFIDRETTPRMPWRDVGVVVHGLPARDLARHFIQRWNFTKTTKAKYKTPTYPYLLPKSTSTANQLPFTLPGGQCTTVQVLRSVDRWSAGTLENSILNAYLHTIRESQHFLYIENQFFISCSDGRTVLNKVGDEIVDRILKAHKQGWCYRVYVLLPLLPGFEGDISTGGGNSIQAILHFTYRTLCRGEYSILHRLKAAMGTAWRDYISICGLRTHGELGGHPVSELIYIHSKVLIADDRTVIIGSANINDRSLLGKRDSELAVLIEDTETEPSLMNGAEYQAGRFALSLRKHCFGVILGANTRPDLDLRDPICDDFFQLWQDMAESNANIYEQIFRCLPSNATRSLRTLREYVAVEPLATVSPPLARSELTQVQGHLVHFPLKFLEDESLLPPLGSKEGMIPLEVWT
# [20] = biological target: Phospholipase D1 (Homo sapiens, UniProt Q13393); test: PLD1 purified enzyme concentration response. [Related pubchem assays (depositor defined):AID588854]; assay type: functional
# Sequence of Phospholipase D1 (Q13393 whole entry): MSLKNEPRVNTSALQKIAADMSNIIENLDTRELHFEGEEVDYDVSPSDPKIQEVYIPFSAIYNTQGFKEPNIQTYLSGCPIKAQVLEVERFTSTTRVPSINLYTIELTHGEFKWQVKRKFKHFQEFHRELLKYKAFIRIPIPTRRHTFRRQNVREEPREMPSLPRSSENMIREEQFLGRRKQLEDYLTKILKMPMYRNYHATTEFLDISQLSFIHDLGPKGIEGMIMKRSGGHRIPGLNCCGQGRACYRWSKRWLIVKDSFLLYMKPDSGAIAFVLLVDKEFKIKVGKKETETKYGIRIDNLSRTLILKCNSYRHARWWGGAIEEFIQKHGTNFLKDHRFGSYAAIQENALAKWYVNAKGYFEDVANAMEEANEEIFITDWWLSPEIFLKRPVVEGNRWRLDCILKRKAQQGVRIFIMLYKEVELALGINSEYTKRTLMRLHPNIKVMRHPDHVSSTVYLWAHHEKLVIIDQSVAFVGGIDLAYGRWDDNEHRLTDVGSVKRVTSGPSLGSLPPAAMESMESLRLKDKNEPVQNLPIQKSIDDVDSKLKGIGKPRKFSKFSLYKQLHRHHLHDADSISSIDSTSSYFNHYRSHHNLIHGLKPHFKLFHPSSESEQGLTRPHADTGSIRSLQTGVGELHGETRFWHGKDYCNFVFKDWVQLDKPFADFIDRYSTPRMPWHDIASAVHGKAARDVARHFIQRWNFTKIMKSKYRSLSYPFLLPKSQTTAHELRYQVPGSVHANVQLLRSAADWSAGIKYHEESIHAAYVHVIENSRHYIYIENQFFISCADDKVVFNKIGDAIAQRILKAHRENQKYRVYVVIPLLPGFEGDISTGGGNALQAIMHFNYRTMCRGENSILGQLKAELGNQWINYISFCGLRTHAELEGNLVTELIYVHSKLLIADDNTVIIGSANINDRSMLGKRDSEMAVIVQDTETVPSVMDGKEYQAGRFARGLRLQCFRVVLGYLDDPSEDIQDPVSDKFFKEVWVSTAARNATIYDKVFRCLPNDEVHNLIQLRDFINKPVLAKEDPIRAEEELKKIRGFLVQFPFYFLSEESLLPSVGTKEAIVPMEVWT
# [21] = biological target: T4, Phospholipase D2; test: PLD2 purified enzyme concentration response. [Related pubchem assays (depositor defined):AID588854]; assay type: functional
# [22] = biological target: UDP-galactopyranose mutase (Mycobacterium tuberculosis, UniProt P9WIQ1); test: Inhibitors of Mycobacterium tuberculosis UDP-galactopyranose mutase (UGM) enzyme Measured in Biochemical System Using Plate Reader - 2105-02_Inhibitor_Dose_CherryPick_Activity. [Related pubchem assays (depositor defined):AID504439]
# Sequence of UDP-galactopyranose mutase (P9WIQ1 whole entry): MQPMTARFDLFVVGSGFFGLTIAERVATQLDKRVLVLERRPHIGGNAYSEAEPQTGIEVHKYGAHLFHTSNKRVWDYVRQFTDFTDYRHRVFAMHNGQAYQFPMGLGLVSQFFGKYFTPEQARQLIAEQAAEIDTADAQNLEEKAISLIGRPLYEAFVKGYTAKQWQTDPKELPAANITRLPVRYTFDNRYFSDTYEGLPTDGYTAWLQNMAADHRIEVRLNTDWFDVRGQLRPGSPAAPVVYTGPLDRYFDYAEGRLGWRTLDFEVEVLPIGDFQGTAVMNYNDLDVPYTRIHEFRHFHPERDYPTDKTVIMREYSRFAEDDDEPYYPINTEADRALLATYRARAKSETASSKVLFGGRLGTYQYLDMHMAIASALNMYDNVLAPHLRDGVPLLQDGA
# [23] = system: HEK293; test: SAR Analysis of small molecule inhibitors of B-cell specific antigen receptor-induced NF-kB activation in a HEK-293T cell line using a luminescence assay - Set 2. [Related pubchem assays (depositor defined):AID435022, AID435025, AID489021]; assay type: functional, cell-based; settings: Homo sapiens
# [24] = system: Jurkat; test: SAR Analysis of small molecule inhibitors of […] specific antigen receptor-induced NF-kB activation in a Jurkat cell line using a luminescence assay - Set 3. [Related pubchem assays (depositor defined):AID435022, AID435025, AID465]; assay type: functional, cell-based; settings: Homo sapiens
# [25] = system: HEK293; test: cytotoxicity in HEK293T NF-kB-Luc cells, SAR follow-up, cytotoxicity control for NF-kB activator project, cell-based, resazurin fluorescence (AID 493251); assay type: functional; settings: Homo sapiens
# [26] = biological target: T5, Hexokinase-1 (Homo sapiens, UniProt P19367); test: SAR analysis of small molecule inhibitors of hexokinase domain containing I (HKDC1) in the hexokinase 1 selectivity assay. [Related pubchem assays (depositor defined):AID493160, AID493190]; assay type: functional
# T5 sequence (P19367 whole entry): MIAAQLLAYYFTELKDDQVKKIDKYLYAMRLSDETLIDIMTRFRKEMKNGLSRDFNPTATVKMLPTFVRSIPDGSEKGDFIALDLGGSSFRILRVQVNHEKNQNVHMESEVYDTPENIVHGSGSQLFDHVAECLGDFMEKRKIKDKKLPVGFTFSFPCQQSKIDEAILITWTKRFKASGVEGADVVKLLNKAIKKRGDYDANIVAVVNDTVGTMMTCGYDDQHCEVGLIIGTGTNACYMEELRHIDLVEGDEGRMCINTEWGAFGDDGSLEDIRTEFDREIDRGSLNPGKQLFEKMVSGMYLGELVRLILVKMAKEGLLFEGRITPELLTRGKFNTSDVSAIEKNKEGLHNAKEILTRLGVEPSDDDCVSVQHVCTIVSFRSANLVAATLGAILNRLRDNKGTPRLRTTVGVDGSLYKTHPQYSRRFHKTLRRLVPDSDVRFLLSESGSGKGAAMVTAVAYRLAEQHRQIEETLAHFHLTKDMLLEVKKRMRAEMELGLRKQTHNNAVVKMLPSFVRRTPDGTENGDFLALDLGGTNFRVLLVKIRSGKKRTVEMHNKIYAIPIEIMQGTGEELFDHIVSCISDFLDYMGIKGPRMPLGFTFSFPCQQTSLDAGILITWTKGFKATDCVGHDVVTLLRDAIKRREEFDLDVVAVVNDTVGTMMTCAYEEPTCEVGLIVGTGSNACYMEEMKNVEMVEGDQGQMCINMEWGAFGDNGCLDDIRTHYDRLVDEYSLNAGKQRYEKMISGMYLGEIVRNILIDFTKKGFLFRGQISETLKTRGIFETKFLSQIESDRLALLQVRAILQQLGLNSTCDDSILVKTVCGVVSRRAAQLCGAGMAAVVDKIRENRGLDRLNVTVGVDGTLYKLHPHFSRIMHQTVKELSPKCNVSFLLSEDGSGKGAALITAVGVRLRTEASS
# [27] = biological target: T6, Hexokinase HKDC1 (Homo sapiens, UniProt Q2TB90); test: SAR analysis of small molecule inhibitors of hexokinase domain containing I (HKDC1). [Related pubchem assays (depositor defined):AID493160, AID493190]; assay type: functional
# T6 sequence (Q2TB90 whole entry): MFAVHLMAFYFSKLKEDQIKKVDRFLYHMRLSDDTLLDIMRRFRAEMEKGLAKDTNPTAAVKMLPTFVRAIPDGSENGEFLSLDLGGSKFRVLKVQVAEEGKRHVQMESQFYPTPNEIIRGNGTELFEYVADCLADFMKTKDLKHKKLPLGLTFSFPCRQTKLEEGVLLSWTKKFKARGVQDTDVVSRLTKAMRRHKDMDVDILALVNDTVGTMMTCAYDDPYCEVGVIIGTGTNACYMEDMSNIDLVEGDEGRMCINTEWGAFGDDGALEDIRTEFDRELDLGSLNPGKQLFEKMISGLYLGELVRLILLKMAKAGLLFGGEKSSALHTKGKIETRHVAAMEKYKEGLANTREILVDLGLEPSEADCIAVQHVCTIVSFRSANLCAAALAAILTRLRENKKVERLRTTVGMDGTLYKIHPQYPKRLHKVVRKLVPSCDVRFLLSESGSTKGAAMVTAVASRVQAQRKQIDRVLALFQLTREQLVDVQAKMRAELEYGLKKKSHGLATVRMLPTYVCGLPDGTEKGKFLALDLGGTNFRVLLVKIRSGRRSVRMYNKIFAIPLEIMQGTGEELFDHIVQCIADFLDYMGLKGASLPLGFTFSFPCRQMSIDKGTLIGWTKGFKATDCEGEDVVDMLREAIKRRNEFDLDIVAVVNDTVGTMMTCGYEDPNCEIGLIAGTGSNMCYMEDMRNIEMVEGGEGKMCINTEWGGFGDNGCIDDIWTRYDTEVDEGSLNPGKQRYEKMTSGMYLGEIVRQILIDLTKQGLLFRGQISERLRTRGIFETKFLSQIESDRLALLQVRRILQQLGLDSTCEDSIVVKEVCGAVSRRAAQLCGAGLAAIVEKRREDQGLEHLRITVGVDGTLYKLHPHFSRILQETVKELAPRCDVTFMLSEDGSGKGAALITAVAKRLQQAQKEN
# Sequence of FAD-linked sulfhydryl oxidase ALR (P55789 whole entry): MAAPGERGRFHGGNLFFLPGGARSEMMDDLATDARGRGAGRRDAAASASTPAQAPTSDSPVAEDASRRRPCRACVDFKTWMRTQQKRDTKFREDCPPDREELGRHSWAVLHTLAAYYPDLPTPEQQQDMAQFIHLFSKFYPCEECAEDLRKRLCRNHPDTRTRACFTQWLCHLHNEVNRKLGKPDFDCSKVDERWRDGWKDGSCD
structure (smiles),measurement,setting,value
O=C(NNc1c2ccccc2nc2ccccc12)c1ccccc1O,AC50,[1],80 nM (active)
same,AC50,[2],18.3 µM (active)
same,IC50,[3],60.8 µM (inactive)
same,AC50,[4],22.8 µM (active)
Cc1cc(I)cc2c1NC(C(=O)O)C1CC=CC21 (configuration not stated),IC50,[5],> 100 µM (not active)
same,IC50,[6],> 100 µM (inactive)
same,IC50,[7],> 100 µM (not active)
same,IC50,[8],> 100 µM (not active)
same,IC50,[9],> 100 µM (not active)
same,IC50,[10],> 100 µM (inactive)
O=C(CSc1nnc(NC2CCCCC2)s1)Nc1ccc2c(c1)C(=O)c1ccccc1C2=O,IC50,[11],> 67.5 µM (inactive)
same,IC50,[12],> 67.5 µM (inactive)
O=C(CCCCCn1c(=O)[nH]c2ccsc2c1=O)NCc1ccc2c(c1)OCO2,EC50,[13],39.3 nM (active)
CC(=O)c1ccc(N/C=C/C(=O)c2ccc(Br)cc2)cc1,AC50,[14],> 35 µM (active)
same,AC50,[15],> 35 µM (active)
O=C(Nc1nc2ccc(Cl)cc2s1)C1CCCO1 (configuration not stated),CC50,[16],> 40 µM (active)
same,AC50,[17],2.01 µM (active)
same,AC50,[18],2.03 µM (active)
O=C(NCCN1CCC2(CC1)C(=O)NCN2c1ccc(F)cc1)c1cc2cc(F)ccc2[nH]1,IC50,[19],27 nM (active)
same,IC50,[20],5.5 µM (active)
same,IC50,[21],66 nM (active)
Cc1cc(C)c(S(=O)(=O)Nc2ccc(C(=O)O)cc2)cc1S(=O)(=O)Nc1ccc(C(=O)O)cc1,AC50,[22],423 µM (active)
CCOc1ccc(-c2nc(CSCC(=O)NCc3ccccc3)c(C)o2)cc1,IC50,[23],21.6 µM (inactive)
same,IC50,[24],> 80 µM (inactive)
same,IC50,[25],49.3 µM (inactive)
O=c1c2ccccc2nc(/C=C/c2ccccc2)n1-c1ccccc1,IC50,[26],> 80 µM (inactive)
same,IC50,[27],> 80 µM (inactive)
